This is an account of results in US11344709B2, “Fluid delivery apparatus having a controller assembly and method of use” (SORRENTO THERAPEUTICS, INC., priority 2016, dated 2022).

Read-outs that look alike come from different tables or passages of the source.

Data set [1] in a line: Porcine Pharmacokinetic Study (FIG. 50): sumatriptan in blood serum after delivery from the fluid delivery apparatus. Format: in vivo, Yorkshire pigs. Particulars: 20 mg dose from the fluid delivery apparatus (microneedles), pig; actual profile FIG. 50 compared with nasal, oral and Zecuity (FIG. 49). How it is done: In reference to FIG. 50, shown is the time versus concentration profile of sumatriptan as administered according to the methods and devices disclosed herein. An ideal profile (identified as “Target PK Profile”) is calculated based on the therapeutic efficiency of the medicament.
Thirty five 80 kg castrated or female Yorkshire pigs were placed under anesthesia and a catheter was inserted into the right or left jugular vein. After the catheter was placed, the pigs were kept under anesthesia and placed on their backs. The ventral region was shaved and covered with a depilatory cream (Nair Sensitive®) for 8 minutes. The cream was removed and the area washed with alcohol. The fluid delivery apparatus was placed against the skin with an adhesive and the microneedles (100 total) were inserted at a post traveling velocity of 6 m/s. A 20 mg dose of sumatriptan from the fluid deliver apparatus was delivered while the pig was under anesthesia. 3 mL blood samples were withdrawn at each time point and spun down to recover the blood serum.

The conditions of data set [2]: FIG. 49, cited from earlier work.
[3] abbreviates: nasal administration, compared with actual profile of the fluid delivery apparatus (FIG. 50).
[4] abbreviates: subcutaneous administration, compared with the other routes of administration.

With `CNS(=O)(=O)Cc1ccc2[nH]cc(CCN(C)C)c2c1.O=C(O)CCC(=O)O` [sumatriptan, 1-[3-[2-(dimethylamino)ethyl]-1H-indol-5-yl]-N-methylmethanesulfonamide butanedioic acid], the AUC entry in data set [1] is given as “significantly improved”; in data set [2] (setting [3]) it was “significantly lower”. For the same molecule, the Css result in data set [1] is “significantly improved”; in data set [2] (setting [3]) it was “significantly lower”; in data set [2] (subcutaneous administration), “significantly lower as time progresses”. For the same molecule, the Tmax entry is “significantly improved” in data set [1]; “much slower” in data set [2] (oral administration, compared with actual profile of the fluid delivery apparatus (FIG. 50)); “much faster” in data set [2] (setting [4]). Further, in data set [2] (setting [4]), the Cmax result is reported as “higher”.
